Experimental data published in patent US9453004B2, “Formylated xanthocillin analogues as neuroprotective agents” (NEURON BIOPHARMA, S.A., priority 2012, dated 2016).

Columns and labels:
[1] = test system: SK-N-MC human neuroblastoma culture cells; assay: XXO-induced cell death in real time (RTCA cell index); assay type: cell-based; settings: 20 hours post-treatment
Experimental: These cells, not exceeding 15 passages, were seeded on E-plate 16 specific for a real time assay with the RTCA system (Real-Time Cell Analyzer, […], Roche) with a cell density of 5×10^4 cells/well. After 24 hours of cell incubation at 37° C. and 5% CO2, the cell treatments for the control conditions (culture medium); XXO (10 μM xanthine/60 mU/mL xanthine oxidase); XXO plus […] or […] at 10, 40, 100, 400, 1000 or 4000 ng/ml, were performed. The cells were incubated (at 37° C. and 5% CO2) with these treatments for 72 hours, was monitored every 10 minutes. The values that are obtained are arbitrary units indicated by the cell index, calculated from the impedance data, which is a electrical parameter that establishes the relationship between the voltage and current intensity of the adhered cells which is used as a measurement of cell viability. […] The assay was performed following the same method as the one described in Example 6, testing the analogues at 40, 100, 400 or 1000 ng/ml in the presence of XXO. The cells were incubated (at 37° C. and 5% CO2) with these treatments for 72 hours, and was monitored every 10 minutes. The values that are obtained are arbitrary units indicated by cell index, calculated from the impedance data and used as a measurement of cell viability.

[2] = test system: SK-N-MC human neuroblastoma culture cells; assay: ROS measurement (H2DCFDA, normalized by LDH) in cells treated with XXO; assay type: cell-based
Experimental: Based on the preceding results, the inventors decided to evaluate the antioxidant capacity of the analogues in a cell model. The ROS measurement assay was performed on SK-N-MC human neuroblastoma culture cells, maintained as detailed in Example 2, subjected to aggression with xanthine/xanthine oxidase (XXO). The ROS measurement is taken by means of adding a permeable non-fluorescent probe in live cells (2′,7′-dichlorodihydrofluorescein diacetate, H2DCFDA; Biotium) which is oxidized by the action of ROS, generating 2′,7′-dichlorofluorescein (DCF) which can be detected in a fluorometer at 485 nm of excitation and 538 nm of emission. The fluorescence results were normalized by cell viability, measured by means of lactate dehydrogenase (LDH) activity, using the Roche Cytotoxicity Detection Kit (LDH). The results obtained with the analogues on the production of ROS are shown in FIG. 29 as the percentage of ROS corrected by LDH with respect to treatment with XXO of each analogue in a dose-response curve. A known ROS reduction control compound (C+) was used. * indicates the significant difference with respect to treatment with XXO according to the Student's t test (p<0.05).

[3] = test system: SK-N-MC human neuroblastoma culture cells; assay: Camptothecin-induced apoptosis (DNA fragmentation, flow cytometry) in SK-N-MC cells; assay type: cell-based; settings: CPT
Experimental: Based on the preceding results, the researchers decided to analyze the antiapoptotic effect of compounds NPS0155 and NPS0156. The assays were performed on two SK-N-MC human neuroblastoma culture cell lines stably transfected with constructs expressing the amyloid precursor protein (APP) gene encoding for the isoform primarily expressed in the brain, containing 695 amino acids cloned into the expression vector pcDNA3.1 (Invitrogen). One of the lines expresses the wild-type APP (APPwt) gene and the other line expresses the gene APP with the Swedish mutation (APPswe) which is a double mutation in exon 16 of the gene and produces a G to T transversion yielding the change of amino acid Lys595Asn and another A to C transversion causing the Met596Leu change, said mutation being related to the senile or hereditary forms of Alzheimer's disease. The cells were maintained as the parent cells SK-N-MC, as detailed in Example 2, using geneticin at 400 μg/ml as a selection antibiotic. To determine the effect of compounds NPS0155 and NPS0156 on apoptosis (programmed cell death), DNA fragmentation was analyzed by means of flow cytometry, produced by treatment with camptothecin (CPT) inhibiting the topoisomerase I enzyme, which impedes DNA duplication and triggers apoptotic cell death. The two cell lines, not exceeding 10 passages, were seeded on 12-well microtite plate treated for adherent cells with a cell density of 4×10^5 cells/well. After 24 hours of cell incubation at 37° C. and 5% CO2, the pre-treatment of the cells with 4 and 10 μg/mL of NPS0155 or of NPS0156 for 24 hours was performed; they were subsequently treated with 50 μM CPT for 6 hours. After treatment, the cells were collected together with their culture medium and centrifuged at 300×g for 5 minutes. The medium was removed, the cells were washed with PBS solution and were fixed for 2 minutes with 500 μL of 70% ethanol at −20° C. Once they were fixed, they were centrifuged at 400×g for 5 minutes, washed with PBS and labeled with 0.05 mg/mL of propidium iodide, diluted in cycle buffer (0.1% citrate sodium, 0.3% Nonidet P-40 and 0.02 mg/mL RNAse), and were incubated for 1 hour at 37° C. They were maintained at 4° C. for 18 hours and after this time, they were analyzed by flow cytometry, measuring propidium iodide fluorescence as DNA content distribution.
Continuing with the study, the researchers decided to analyze the antiapoptotic effect of the synthesized analogues by analyzing cellular DNA fragmentation by means of flow cytometry. The cellular fragmentation measurement assay was performed on SK-N-MC human neuroblastoma culture cells, maintained as detailed in Example 2, and subjected to an aggression with camptothecin (CPT), following the same approach as the one described in Example 8. […]

[4] = ABTS*+ method, in vitro antioxidant capacity for lipophilic compounds; assay type: biochemical; settings: for 0.1 μg of each compound
Description: Based on the preceding results, the inventors decided to evaluate the in vitro antioxidant capacity of the synthesized analogues, using an antioxidant capacity measurement assay valid for lipophilic compounds, according to the ABTS*^+ method (Samaniego et al. 2007. Analytica Chimica Acta 593: 103-107). This method is based on forming the ABTS*^+ radical cation by means of oxidation with ammonium persulfate of the ABTS reagent [2,2′-azino-bis(3-ethylbenzothiazoline-6-sulfonic acid], which can be colorimetrically determined. In this assay, the compounds with antioxidant capacity suppress the oxidation of the radical in a concentration-dependent manner. A standard curve with increasing concentrations of trolox (hydrosoluble vitamin E analogue) is used to quantify antioxidant capacity, such that the results are indicated as a measurement of trolox equivalents (TE). The results obtained for analogues NPS0158 and NPS0159 are 174±13 μM TE and 165±44 μM TE, respectively, for 0.1 μg of each compound, so they show high in vitro antioxidant capacity.

[5] = TEAC in vitro antioxidant capacity assay; assay type: biochemical
Description: Based on the preceding results, the inventors decided to evaluate in vitro antioxidant capacity of the extract, for which the TEAC assay ([…]) was used. This method is based on the formation of the ferryl-myoglobin radical produced by reacting metmyoglobin with hydrogen peroxide, followed by the oxidation of the ABTS [2,2′-azino-bis(3-ethylbenzthiazoline-6-sulfonic acid] reagent by ferryl-myoglobin, which produces the radical cation ABTS*+, which can be colorimetrically determined. In this assay, the compounds with antioxidant capacity suppress the production of the radical in a concentration-dependent manner. A standard curve with increasing concentrations of trolox (6-hydroxy-2,5,7,8-tetramethylchroman-2-carboxylic acid, hydrosoluble vitamin E analogue) is used to quantify antioxidant capacity, such that the results are indicated as a measurement of trolox equivalents (TE).
Based on the preceding results, the researchers decided to analyze the in vitro antioxidant capacity of compounds NPS0155 and NPS0156 by means of the TEAC assay, described in Example 2. A standard curve with increasing concentrations of trolox (hydrosoluble vitamin E analogue) was used to quantify antioxidant capacity, such that the results are indicated as a measurement of trolox equivalents (TE).

[6] = test system: SK-N-MC cells expressing wild-type APP (APPwt); assay: Camptothecin-induced apoptosis (DNA fragmentation, flow cytometry) in APPwt cells; assay type: cell-based, human; settings: pre-treatment 24 hours at 4 and 10 μg/ml, then 50 μM CPT for 6 hours
Experimental: (§1) Based on the preceding results, the researchers decided to analyze the antiapoptotic effect of compounds NPS0155 and NPS0156. The assays were performed on two SK-N-MC human neuroblastoma culture cell lines stably transfected with constructs expressing the amyloid precursor protein (APP) gene encoding for the isoform primarily expressed in the brain, containing 695 amino acids cloned into the expression vector pcDNA3.1 (Invitrogen). One of the lines expresses the wild-type APP (APPwt) gene and the other line expresses the gene APP with the Swedish mutation (APPswe) which is a double mutation in exon 16 of the gene and produces a G to T transversion yielding the change of amino acid Lys595Asn and another A to C transversion causing the Met596Leu change, said mutation being related to the senile or hereditary forms of Alzheimer's disease. […] To determine the effect of compounds NPS0155 and NPS0156 on apoptosis (programmed cell death), DNA fragmentation was analyzed by means of flow cytometry, produced by treatment with camptothecin (CPT) inhibiting the topoisomerase I enzyme, which impedes DNA duplication and triggers apoptotic cell death. […] They were maintained at 4° C. for 18 hours and after this time, they were analyzed by flow cytometry, measuring propidium iodide fluorescence as DNA content distribution.

[7] = test system: SK-N-MC cells expressing APP with the Swedish mutation (APPswe); assay: Camptothecin-induced apoptosis (DNA fragmentation, flow cytometry) in APPswe cells; assay type: cell-based, human; settings: pre-treatment 24 hours at 4 and 10 μg/ml, then 50 μM CPT for 6 hours
Experimental: as §1

in vitro = settings: PAMPA; for Papp at 4 h / percentage of permeability: pig; for percentage of permeability: 4 h
Experimental: A mixture of lipids derived from pig brain, with a phospholipid composition very similar to the composition forming the human BBB, and referred to as PBL (Porcine Polar Brain Lipid, Avanti Polar Lipids Inc) which is prepared in microtiter plates with a MAIPNTR10 filter (Millipore), with a PVDF membrane and pore size of […], was used to mimic the blood-brain barrier. […] The percentage of barrier crossing and the effective permeability (Pe) were calculated based on the absorbance data obtained. The following formula was applied to calculate the Pe: […]

SMILES | maximum protection against death caused by XXO ([1]; at 100 ng/ml) [%] | maximum ROS reduction (ROS corrected by LDH, with respect to XXO) ([2]; at 100 ng/ml) [%] | maximum protection against death caused by XXO ([1]; at 1000 ng/ml) [%] | antioxidant capacity, trolox equivalents (TE) [4] [μM TE] | maximum protection against apoptosis ([3]; at 10 μg/ml) [%] | antioxidant capacity, trolox equivalents (TE) [5] | protection against apoptosis caused by CPT [6] | protection against apoptosis caused by CPT [7] | BBB permeability (conclusion) (in vitro) | Papp at 4 h (in vitro) [×10⁻⁶ cm/s] | percentage of permeability (in vitro) [%] | other results
CCOc1ccc(/C=C(NC=O)/C(=C/c2ccc(OCC)cc2)NC=O)cc1 [NPS0160, (1Z,2Z)-2-(formylamino)-1-(4-ethoxybenzylidene)-3-(4-ethoxyphenyl)prop-2-enylformamide] | 23 | 31 | – | – | – | – | – | – | – | – | – | maximum protection against apoptosis ([3]; at 1 μg/ml): 30%
O=CNC(=C\c1ccc2c(c1)OCO2)/C(=C/c1ccc2c(c1)OCO2)NC=O [NPS0159, (1Z,2Z)-3-(1,3-benzodioxol-5-yl)-1-(1,3-benzodioxol-5-ylmethylen)-2-(formylamino)prop-2-enylformamide] | – | 27 | 35 | 165±44 | 23 | – | – | – | – | – | – | –
O=CNC(=C\c1ccc(O)cc1)/C(=C/c1ccc(O)c(O)c1)NC=O [NPS0155, (1Z,3Z)-1-(3,4-dihydroxyphenyl)-4-(4-hydroxyphenyl)-2,3-diformamido-1,3-butadiene] | 27 | – | – | – | – | 81±19 μM TE/μg of compound | Protection by NPS0155 was observed at the two tested doses | Protection by NPS0155 was observed at the two tested doses | – | – | – | –
O=CNC(=C\c1ccc(O)cc1)/C(=C/c1ccc(O)cc1)NC=O [NPS0156, (1Z,3Z)-1,4-Di(4-hydroxyphenyl)-2,3-diformamido-1,3-butadiene] | 69 | – | – | – | – | 104±29 μM TE/μg of compound | Protection by NPS0156 was observed at the two tested doses | Protection by NPS0156 was observed at the two tested doses | – | – | – | –
Cc1ccc(/C=C(NC=O)/C(=C/c2ccc(C)c(C)c2)NC=O)cc1C [NPS0161, (1Z,2Z)-1-(3,4-dimethylbenzylidene)-3-(3,4-dimethylphenyl)-2-(formylamino)-prop-2-enylformamide] | 26 | – | – | – | – | – | – | – | high | 14.7 | 29 | maximum ROS reduction (ROS corrected by LDH, with respect to XXO) ([2]; at 400 ng/ml): 45%; maximum protection against apoptosis ([3]; at 0.1 μg/ml): 35%
Cc1ccc(/C=C(NC=O)/C(=C/c2ccc(C)cc2)NC=O)cc1 [NPS0158, (1Z,2Z)-2-(formylamino)-1-(4-methylbenzylidene)-3-(4-methylphenyl)prop-2-enylformamide] | – | 34 | 27 | 174±13 | 28 | – | – | – | moderate | 5.19 | 13 | –
